Measured values reported in PubChem BioAssay (NCI).
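The compound was tested at five concentrations on cells cultured in 96-well plates, with a 48-hour exposure period. GI50 marks 50% less growth. TGI: total growth inhibition.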

Tests used:
Experiment in all cases: DTP human tumour cell line panel, 48 h
[1] = test system: SK-MEL-28 melanoma
[2] = test system: SW-620 colon
[3] = test system: SF-268 CNS
[4] = test system: ACHN renal
[5] = test system: OVCAR-5 ovarian
[6] = test system: CAKI-1 renal
[7] = test system: SF-539 CNS
[8] = test system: CCRF-CEM leukemia
[9] = test system: RXF 393 renal
[10] = test system: PC-3 prostate

Row | Compound | TGI [1] [µM] | TGI [2] [µM] | TGI [3] [µM] | TGI [4] [µM] | TGI [5] [µM] | TGI [6] [µM] | TGI [7] [µM] | TGI [8] [µM] | TGI [9] [µM] | GI50 [1] [µM] | GI50 [2] [µM] | GI50 [3] [nM] | GI50 [4] [nM] | GI50 [5] [µM] | GI50 [6] [nM] | GI50 [7] [nM] | GI50 [8] [µM] | TGI [10] [µM] | GI50 [10] [nM] | GI50 [9] [µM]
1 | CC(C)OP(=O)(OC(C)C)c1ncn(-c2ccc([N+](=O)[O-])cc2)n1 | > 100 | > 100 | > 100 | > 100 | > 100 | > 100 | > 100 | > 100 | > 100 |  |  |  |  |  |  |  |  |  |  | 
2 | O=C(CCc1nnc2s/c(=C\c3ccc(Cl)cc3Cl)c(=O)n12)Nc1cc(Cl)c(Cl)cc1Cl | > 100 | > 100 | > 100 | > 100 | > 100 | > 100 | > 100 | > 100 |  | > 100 | > 100 | > 100000 | > 100000 | > 100 | > 100000 | > 100000 | > 100 |  |  | 
3 | Cc1cccc2ns[s+]c12 | > 100 | 32.7 | > 100 | > 100 | > 100 | > 100 | > 100 | > 100 |  |  |  |  |  |  |  |  |  |  |  | 
4 | CC1=C2CC3=C(C)C(=O)O[C@H]3C[C@@H](C)[C@@H]2CC1 | > 100 | > 100 | > 100 | > 100 | > 100 | > 100 |  | > 100 |  |  |  |  |  |  |  |  |  | > 100 |  | 
5 | COc1ccc2c(c1)CCC1C2CCC2(C)C1CC[C@@]2(O)CNC(=O)/C=C/c1ccc(O)c(O)c1 (some centres undefined) | 31.8 | > 100 | > 100 | 7.16 | > 100 | > 100 | 6.75 |  | 16.7 | 4.33 | 4.07 | 2970 | 2190 | 16.5 | 2680 | 2080 |  | 10.2 | 1920 | 3.98
6 | OB1OCc2ccccc21 | 63 | > 100 | > 100 |  |  | > 100 | 64.4 | 54.9 |  |  |  |  |  |  |  |  |  | 64.4 |  | 
7 | CC(C)(Oc1ccc(C2C[C@H]2Cl)cc1)C(=O)O (some centres undefined) | > 100 | > 100 |  |  | > 100 | > 100 | > 100 |  | > 100 |  |  |  |  |  |  |  |  | > 100 |  | 
8 | Nc1nc(NC(=O)C2=NS(=O)(=O)c3cc(S(N)(=O)=O)c(Cl)cc3N2)n[nH]1 | > 100 | > 100 | > 100 | > 100 | > 100 | > 100 | > 100 | > 100 | > 100 |  |  |  |  |  |  |  |  |  |  | 
9 | Clc1ccc(CCn2ccc3ccccc32)c(Cl)c1 |  | > 100 | > 100 | > 100 | > 100 | > 100 | > 100 | > 100 | > 100 |  |  |  |  |  |  |  |  | > 100 |  | 
10 | COC(=O)C(I(OS(=O)(=O)c1ccc(C)cc1)c1ccccc1)=P(c1ccccc1)(c1ccccc1)c1ccccc1 | 28.7 |  | 33.4 | 32.6 | 73.1 | > 100 | 34.9 | > 100 | 39.2 |  |  |  |  |  |  |  |  | 62 |  | 
11 | CCC1(CC)C(=O)N(C(=O)c2ccc(Cl)cc2)N(C(=O)c2ccccc2Cl)C1=O | > 100 | 89.8 | > 100 | > 100 | > 100 | > 100 |  | > 100 | > 100 |  |  |  |  |  |  |  |  | > 100 |  | 
12 | COC(=O)c1ccc2[nH]c3c(c2c1)CC(=O)Nc1ccccc1-3 | > 100 | > 100 | > 100 | > 100 | > 100 | > 100 | 5.52 |  |  |  |  |  |  |  |  |  |  | > 100 |  | 
13 | COc1ccccc1C1C(Cl)C(=O)N1NC(=O)Cc1ccccc1 (centres undefined) | > 100 | > 100 | > 100 | > 100 | > 100 | > 100 |  | > 100 | > 100 |  |  |  |  |  |  |  |  |  |  | 
14 | C=CC(C)(C)c1cc([C@@H]2COc3cc(O)ccc3C2=O)c(O)c(OC)c1OC | 52.6 | > 100 | 51 | 33.7 | 50.4 |  | 44 | > 100 | 3.58 |  |  |  |  |  |  |  |  | 34.8 |  | 
15 | COC[C@H](Cc1ccccc1)N=Cc1ccccc1 | > 100 | > 100 | > 100 | > 100 | > 100 | > 100 |  | > 100 | > 100 |  |  |  |  |  |  |  |  | > 100 |  | 
16 | COc1cc(NS(C)(=O)=O)ccc1N1Cc2cnc3ccc4[nH]ccc1c4c23 | > 100 | > 100 | 75.2 | > 100 | > 100 | > 100 |  | > 100 |  |  |  |  |  |  |  |  |  | > 100 |  | 
17 | CN1CCN(c2nc3c(c(=O)n(C)c(=O)n3C)n2C)CC1 | > 100 | > 100 | > 100 | > 100 | > 100 | > 100 |  | > 100 | > 100 |  |  |  |  |  |  |  |  | > 100 |  | 
18 | N#Cc1ccc(/C=C2\Cc3ccccc3C2=O)cc1 | > 100 | > 100 | > 100 | > 100 |  | > 100 | > 100 | > 100 | > 100 |  |  |  |  |  |  |  |  | > 100 |  | 
19 | O=c1n(CCO)nc2n1CCCN2 | > 100 | > 100 | > 100 | > 100 | > 100 |  | > 100 | > 100 | > 100 |  |  |  |  |  |  |  |  | > 100 |  | 
20 | CCCCCCc1cc2cc(C(=O)Nc3cccc(C(F)(F)F)c3)c(=N)oc2cc1O | 27.6 | > 46.1 | 19.1 | > 34.7 | 69.7 | 11.5 | 3.59 |  | 2.19 |  |  |  |  |  |  |  |  | 15.1 |  | 
21 | O=C1CSC(c2ccc(Cl)cc2)N1c1ccc(-n2c(-c3ccccc3)nc3ccccc3c2=O)cc1 (centres undefined) | > 100 | > 100 | > 100 | > 100 | > 100 | > 100 | > 100 | > 100 |  |  |  |  |  |  |  |  |  | > 100 |  | 
22 | CCCCCCCCCCCCCCCCCc1nc(C#N)c(N)o1 | > 100 | > 100 | > 100 | > 100 | > 100 | > 100 |  | > 100 |  |  |  |  |  |  |  |  |  | > 100 |  | 
